Source: patent publication US8383550B2, “Defoliant” (Bayer Cropscience AG, priority 2009, dated 2013)

What was measured:
[1] = system: Cotton plants of the cultivar "Carmen"; test: Leaf drop effect on cotton plants after spray application (greenhouse); type: in vivo; conditions: 1 l/ha Actirob B added
Method: (§1) A water application rate of 300 l/ha was initially charged. The components herbicide and adjuvant were then added with stirring at the application rates and in the manner stated in the tables, such that a homogeneous spray liquor was formed. Here, the active ingredients were employed as suspension concentrates (thidiazuron as ®Escalate liquid SC500. Metribuzin as ®Sencor SC 80, thidiazuron+diuron as ®Dropp Ultra SC180) from Bayer CropScience AG. The adjuvant used was ®Actirob B (Novance).
(§2) Cotton seeds of the cultivar “Carmen” were sown at a depth of 1 cm and cultivated in a greenhouse cabin (20000-50000 LUX light: 14 hrs/day; temperature at night: 22° C., during the day: 30° C., rel. atmospheric humidity at night: 65%, during the day 50%) until they had reached the 6-8 leaf stage.
(§3) The plants were treated on a laboratory spray track with spray liquors of thidiazuron and thidiazuron with combination partners. The water application rate for the spray application was 300 l/ha. After the treatment, the plants were returned to the greenhouse cabin.
4 and 8 days after the application, the leaf drop effect was evaluated (leaf drop %): • 0%=no noticeable effect compared to untreated plants; • 100%=all leaves have dropped off.

[2] = system: Cotton plants of the cultivar "Carmen"; test: Regrowth of cotton plants, by weighing newly formed leaf material; type: in vivo; conditions: 2 weeks after application, 1 l/ha Actirob B added, repeated twice
Method: as §1, §2, §3
2 weeks after the application, the regrowth of the plants was assessed by weighing the newly formed leaf material. The tabular values express the regrowth as a percentage of the untreated control.

[3] = Test 1, dose 30 g of a.i./ha, 0%=no effect, 100%=all leaves dropped

| Structure (SMILES) | Leaf drop [%] 8 days after application ([1]; Test 1, dose 30 g of a.i./ha) [%] | Leaf drop [%] 4 days after application [1, 3] [%] | Regrowth [%] as a percentage of the untreated control ([2]; Table 3, dose 30 g of a.i./ha) | Leaf drop [%] 4 days after application ([1]; Test 1, dose 15 g of a.i./ha) [%] | Leaf drop [%] 8 days after application ([1]; Test 1, dose 15 g of a.i./ha) [%] | Leaf drop [%] 4 days after application ([1]; Test 2, dose 15 g of a.i./ha) [%] | Leaf drop [%] 8 days after application ([1]; Test 2, dose 15 g of a.i./ha) [%] | Leaf drop [%] 4 days after application ([1]; Test 2, dose 30 g of a.i./ha) [%] | Leaf drop [%] 8 days after application ([1]; Test 2, dose 30 g of a.i./ha) [%] | Regrowth [%] as a percentage of the untreated control ([2]; Table 3, dose 15 g of a.i./ha) [%] | Regrowth [%] as a percentage of the untreated control ([2]; Table 4, dose 15 g of a.i./ha) [%] | Regrowth [%] as a percentage of the untreated control ([2]; Table 4, dose 30 g of a.i./ha) [%] |
| --- | --- | --- | --- | --- | --- | --- | --- | --- | --- | --- | --- | --- |
| O=C(Nc1ccccc1)Nc1cnns1 [thidiazuron] | 63 | 0 | +60% | – | – | – | – | – | – | – | – | – |
| CSc1nnc(C(C)(C)C)c(=O)n1N [metribuzin] | 0 | 0 | 0% | 0 | 0 | 0 | 0 | 0 | 0 | 0 | 0 | 0 |
